One may read the IC50 as the midpoint of a concentration-inhibition curve. One may read the Ki as a measure of affinity in units of concentration, obtained from inhibition or displacement. For orientation: MIC means the smallest concentration in the dilution series that meets the test's criterion for growth inhibition.

Several values for one entry are separate records, joined by “and”; a condition that tells them apart may be missing. Equal entries are not always repeated. Where two headings read alike, the source gives them in different places.

One test addresses VIM-1 (Pseudomonas aeruginosa, UniProt A0A0F7KYQ8). Briefly: VIM-1 spectrophotometric enzyme inhibition assay (nitrocefin hydrolysis). It is filed as biochemical. Also noted: dose or concentration left out as unconfirmed. Conditions: 5 min, read-out: % Inib vs VIM-1. As for the experimental part: (§1) The synthesized compounds were all tested for their inhibitory activity against targeted MBLs using a spectrophotometric assay (Table S2). After an initial validation at fixed concentration, compounds yielding > 0% inhibition were profiled in dose–response experiments to determine their IC50. The IC50 values were determined by measuring the rate of hydrolysis of the reporter substrate meropenem MEM ([S] = 57 μM; Km = 63.4 μM) in the presence of five different inhibitor concentrations. Assays were run after a 5 min incubation. The Ki was either calculated by the Cheng–Prusoff equation assuming competitive inhibition, or, for selected inhibitors, fully determined with Dixon plots (Figure S1).
(§2) The percentage of inhibition (%Inh) of 1,2,4-triazole derivatives was determined against a panel of subclass B1 MBLs (NDM-1, VIM-1, VIM-2, and IMP-1). Each compound was initially tested at a fixed concentration for inhibitory activity vs. the targeted enzymes. For the best active inhibitors, half-maximal inhibitory concentration (IC50) and Ki values were determined. Reactions were monitored using a Jasco V-730 spectrophotometer ( JASCO EUROPE S.R.L. Via Luigi Cadorna 1 23894 Cremella (LC) Italy) using nitrocefin or meropenem as reported substrates. Compounds were dissolved in dimethyl sulfoxide (DMSO) and stored at −20 °C. For VIM-1, VIM-2, and IMP-1MBLs, assays were conducted in 20 mM of HEPES, 100 mM of NaCl, and ZnSO4 at 10 µM at pH 7.4 at 25 °C with 0.01% v/v Triton X-100 to avoid compound aggregation and promiscuous inhibition. For NDM-1, assays were conducted in 20 mM of TRIS HCl + 150 mM of NaCl at pH 7.5 at 25°C with 0.01% v/v Triton X-100 to avoid aggregation.
Table S2. The inhibitory activity of 4-amino-4H-1,2,4-triazole-3-thiol derivatives discussed here. […]
Tests were conducted at 25° C by following the absorbance variation observed upon reporter substrate (Meropenem 57 μM for NDM-1, 17 μM for VIM-2) or Nitrocefin (23 μM for VIM-1). The percentage of inhibition is reported except when ≤ 15% and in this case is indicated by NI “no inhibition”. Compounds concentration was […] vs NDM-1. Assays were run after a 5-minutes incubation. […]

For another test, the target named is T1, NDM-1 (Klebsiella pneumoniae, UniProt C7C422).
T1 construct: made in house; host or cells: E. coli BL21(DE3)
T1 sequence (C7C422 29-270, looked up, species assumed): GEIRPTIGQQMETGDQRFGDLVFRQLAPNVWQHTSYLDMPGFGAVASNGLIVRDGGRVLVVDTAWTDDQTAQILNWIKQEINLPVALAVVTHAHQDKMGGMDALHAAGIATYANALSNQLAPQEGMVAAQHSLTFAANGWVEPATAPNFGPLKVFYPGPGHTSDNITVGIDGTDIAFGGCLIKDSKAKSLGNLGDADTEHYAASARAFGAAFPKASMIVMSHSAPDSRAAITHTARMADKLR
Briefly: NDM-1 spectrophotometric enzyme inhibition assay (meropenem hydrolysis). In kind it is biochemical. Details: inhibition: dose or concentration left out as unconfirmed. The conditions noted are these: for inhibition: 5 min, read-out: % Inib vs NDM-1; for IC50: substrate MEM 57 μM, 5 min incubation, triplicate, NI: no inhibition (<30% inhibition at 100 µM); for IC50 / Ki: 25 °C; for Ki: substrate MEM; for NDM-1 inhibitory activity: at 100 μM. As for the experimental part: as §1, §2
(§3) For all targeted proteins, the reaction was typically initiated by adding the substrate to the reaction buffer last, after a 5 min preincubation. After brief shaking, the reading was performed for a total kinetic time of 240 s at 25 °C. The IC50 values were determined by measuring the rate of hydrolysis of the reporter substrate in the presence of five different inhibitor concentrations. The binding affinity Ki was generally estimated from the determined IC50 using the Cheng–Prusoff equation as per competitive inhibition. For the best inhibitors, the mechanism of inhibition and Ki were determined with a Dixon plot (CP 22, CP 35, CP 56, and CP 57 against NDM-1; compound CP 57 against VIM-2).

For test [1], the system named is six MBL-producing multidrug-resistant clinical isolates. Briefly: Growth inhibition by the compound tested alone. Conditions: 32 μg/mL, without MEM. It is filed as cell-based. As for the experimental part:
(§4) The potential synergistic activity of the three best inhibitors (CP 35, CP 56, and CP 57) was tested using the broth microdilution method on six MBL-producing multidrug-resistant clinical isolates. […] Although apparently modest, this increase in synergistic activity represents a significant improvement over the previous generation of triazole-thione β-lactamase inhibitors previous described by our group.

In the next test the target is VIM-2 (Escherichia coli, UniProt Q5U7L7). Nature of the test: VIM-2 spectrophotometric enzyme inhibition assay (meropenem hydrolysis). It is filed as biochemical. The conditions noted are these: 25 °C; for % Inib vs VIM-2: meropenem 17 μM, 5 min incubation, NI = no inhibition (≤15%). As to the method: The synthesized compounds were all tested for their inhibitory activity against targeted MBLs using a spectrophotometric assay (Table S2). After an initial validation at fixed concentration, compounds yielding > 0% inhibition were profiled in dose–response experiments to determine their IC50. […] Assays were run after a 5 min incubation. The Ki was either calculated by the Cheng–Prusoff equation assuming competitive inhibition, or, for selected inhibitors, fully determined with Dixon plots (Figure S1).
as §2, §3

The test system of test [2] is P. aeruginosa VA-182/00 (VIM-2). Nature of the test: Synergy with meropenem, broth microdilution MIC. It is filed as cell-based, Pseudomonas aeruginosa. As for the experimental part: as §4
The test system of test [3] is K. pneumoniae VA-416/02 (VIM-4). Nature of the test: Synergy with meropenem, broth microdilution MIC. In kind it is cell-based. As to the method:
as §4
A general note: In broth dilution the organism is exposed to a series of concentrations in liquid medium.

The subject of test [4] is K. pneumoniae SI-518 (NDM-1). Nature of the test: Synergy with meropenem, broth microdilution MIC. In kind it is cell-based. As for the experimental part:
as §4

Test [5] deals with K. pneumoniae SI-1072 (NDM-1). Briefly: Synergy with meropenem, broth microdilution MIC. In kind it is cell-based. As for the experimental part:
as §4

The next test addresses MBLs. Details: method as in PMID 36450011, PMID 31871094, PMID 32482673. The conditions noted are these: cited from earlier work.
Where [6] appears, read: Ki determined with Dixon plots, read-out: NDM-1 Ki (Dixon plots).
Where [7] appears, read: compound 32 μg/mL, VIM-4-producing K. pneumoniae.
The mark [8] stands for this setting: Ki calculated from IC50 as per competitive inhibition (Cheng–Prusoff), read-out: NDM-1 Ki (calculated from IC50).
The mark [9] stands for this setting: compound 32 μg/mL, NDM-1-producing K. pneumoniae (strain not given).
Setting [10] is: Klebsiella pneumoniae, MEM alone (Cpd: None).

As for `FC(F)(F)c1ccccc1/C=N/n1cnnc1S` [CP 17, (E)-4-((2-(Trifluoromethyl)benzylidene)amino)-4H-1,2,4-triazole-3-thiol], on VIM-1, the inhibition was 46%. On NDM-1, the inhibition turned out to be 51%; the half-inhibitory concentration (IC50) is > 100 µM and 226 µM.
As for `Sc1nncn1/N=C/c1cccc2ccccc12` [CP 18, (E)-4-((Naphthalen-1-ylmethylene)amino)-4H-1,2,4-triazole-3-thiol], the inhibition on VIM-1 was determined as 33%. Also, at NDM-1, the inhibition is > 100% and the half-maximal inhibitory concentration (IC50) was found to be 52 ± 7.5 µM.
On to `COc1ccc(/C=N/n2cnnc2S)cc1` [CP 19, (E)-4-((4-Methoxybenzylidene)amino)-4H-1,2,4-triazole-3-thiol], for which the inhibition stood at 15% on VIM-1 and 24% on NDM-1.
As to `COc1cccc(/C=N/n2cnnc2S)c1` [CP 20, (E)-4-((3-Methoxybenzylidene)amino)-4H-1,2,4-triazole-3-thiol], the figures for the inhibition on VIM-1 and at NDM-1 were 14% and 40%, respectively.
The matching figures for `COc1ccccc1/C=N/n1cnnc1S` [CP 21, (E)-4-((2-Methoxybenzylidene)amino)-4H-1,2,4-triazole-3-thiol]: 32% and 38%.
Consider `Sc1nncn1/N=C/c1cccc(Br)c1` [CP 22, (E)-4-((3-Bromobenzylidene)amino)-4H-1,2,4-triazole-3-thiol], for which the inhibition is 46% at VIM-1 and 68% on NDM-1. Also, the IC50 on NDM-1 stood at 88.5 ± 3.7 µM. Also, the Ki at NDM-1 (setting [6]) amounted to 42.7 µM.
`Sc1nncn1/N=C/c1ccccc1Br` [CP 23, (E)-4-((2-Bromobenzylidene)amino)-4H-1,2,4-triazole-3-thiol]: at NDM-1, the inhibition was 67% and the concentration for half-maximal inhibition (IC50) is 83 ± 3.3 µM.
For `Sc1nncn1/N=C/c1ccc(Br)cc1` [CP 24, (E)-4-((4-Bromobenzylidene)amino)-4H-1,2,4-triazole-3-thiol], on VIM-1, the inhibition stood at 28%. Also, on NDM-1, the inhibition is 64% and the IC50 was determined as 83.1 ± 2.7 µM.
Consider `O=C(O)c1ccccc1/C=N/n1cnnc1S` [CP 29, (E)-2-(((3-Mercapto-4H-1,2,4-triazol-4-yl)imino)methyl)benzoic acid], for which the inhibition on VIM-1 was determined as 17%. Also, at NDM-1, the NDM-1 inhibitory activity result was “no inhibitory activity” and the IC50 is > 100 µM.
Turning to `O=C(O)c1ccc(/C=N/n2cnnc2S)cc1` [CP 30, (E)-4-(((3-Mercapto-4H-1,2,4-triazol-4-yl)imino)methyl)benzoic acid], the inhibition at VIM-1 came out at 18%. Besides, on NDM-1, the NDM-1 inhibitory activity entry is “no inhibitory activity” and the IC50 is > 100 µM.
Take `N#Cc1ccccc1/C=N/n1cnnc1S` [CP 31, (E)-2-(((3-Mercapto-4H-1,2,4-triazol-4-yl)imino)methyl)benzonitrile]: the inhibition at NDM-1 amounted to 10%.
`Sc1nncn1/N=C/c1ccccn1` [CP 32, (E)-4-((Pyridin-2-ylmethylene)amino)-4H-1,2,4-triazole-3-thiol]: the inhibition on VIM-1 came to 17%; on NDM-1 it was 20%.
As for `FC(F)(F)c1nnc(S)n1/N=C/c1cccc(Br)c1` [CP 35, (E)-4-((3-Bromobenzylidene)amino)-5-(trifluoromethyl)-4H-1,2,4-triazole-3-thiol], in test [1], the “growth inhibition, compound tested alone” value is “no growth inhibition”. The “% Inib vs VIM-2” value at VIM-2 is reported as 53%. Further, the “synergistic activity with MEM” value in test [2] (compound 32 μg/mL, VIM-2 P. aeruginosa) was “no synergistic activity at all”; in [3] (setting [7]), “no synergistic activity at all”. Moreover, the Ki at NDM-1 (setting [6]) was 25.8 µM.
Consider `O=C(O)c1ccccc1/C=N/n1c(S)nnc1C(F)(F)F` [CP 45, (E)-2-(((3-Mercapto-5-(trifluoromethyl)-4H-1,2,4-triazol-4-yl)imino)methyl)benzoic acid], for which, on NDM-1 (setting [8]), the Ki was 83 µM.
Regarding `FC(F)(F)c1nnc(S)n1/N=C/c1nn[nH]n1` [CP 46, (E)-4-(((2H-Tetrazol-5-yl)methylene)amino)-5-(trifluoromethyl)-4H-1,2,4-triazole-3-thiol], the “% Inib vs VIM-2” value on VIM-2 stood at 42%.
In the case of `FC(F)(F)c1ccc(-c2nnc(S)n2/N=C/c2cccc(Br)c2)cc1` [CP 55, (E)-4-((3-Bromobenzylidene)amino)-5-(4-(trifluoromethyl)phenyl)-4H-1,2,4-triazole-3-thiol], the inhibition constant Ki at NDM-1 (setting [8]) was 220 µM.
Turning to `O=C(O)c1cccc(/C=N/n2c(S)nnc2-c2ccc(C(F)(F)F)cc2)c1` [CP 56, (E)-3-(((3-Mercapto-5-(4-(trifluoromethyl)phenyl)-4H-1,2,4-triazol-4-yl)imino)methyl)benzoic acid], in [1], the “growth inhibition, compound tested alone” value is “no growth inhibition”. On VIM-2, the “% Inib vs VIM-2” value is listed as 42%. In addition, the “synergistic activity with MEM” value in test [3] (setting [7]) is “detectable synergistic effect”.
`O=C(O)c1ccccc1/C=N/n1c(S)nnc1-c1ccc(C(F)(F)F)cc1` [CP 57, (E)-2-(((3-Mercapto-5-(4-(trifluoromethyl)phenyl)-4H-1,2,4-triazol-4-yl)imino)methyl)benzoic acid]: in test [1], the “growth inhibition, compound tested alone” value is “no growth inhibition”. For the same compound, the “% Inib vs VIM-2” value at VIM-2 is given as > 100%. Also, the Ki at VIM-2 (substrate MEM, Ki determined with Dixon plot, read-out: VIM-2 Ki (Dixon plots)) was 4.14 µM and 4.1 µM; at NDM-1 (setting [6]) it was 5.59 µM and 5.6 µM. The “reduction of meropenem MIC” value in test [3] (setting [7]), in [4] (setting [9]) and in [5] (setting [9]) was “four-fold” in each case. Moreover, in [3] (setting [7]), the “synergistic activity with MEM” value is “detectable synergistic effect”.
Consider `FC(F)(F)c1ccc(-c2nnc(S)n2/N=C/c2nn[nH]n2)cc1` [CP 58, (E)-4-(((2H-Tetrazol-5-yl)methylene)amino)-5-(4-(trifluoromethyl)phenyl)-4H-1,2,4-triazole-3-thiol], for which the “% Inib vs VIM-2” value on VIM-2 turned out to be 53%.
For the compound `C[C@@H](O)[C@H]1C(=O)N2C(C(=O)O)=C(S[C@@H]3CN[C@H](C(=O)N(C)C)C3)[C@H](C)[C@H]12` [MEM, meropenem, reference compound], the MIC came to 256 µg/mL in test [2] (Pseudomonas aeruginosa, MEM alone (Cpd: None)); 16 µg/mL in test [3] (setting [10]); 128 µg/mL in test [4] (setting [10]); 128 µg/mL in [5] (setting [10]).
As for `O=C(O)c1c(F)ccc2c1OB(O)[C@@H]1C[C@H]21` [QPX7728], at MBLs, the Ki values entry is on record as “low nanomolar range”.
Consider `NCCN[C@H]1CC[C@H](CC(=O)N[C@H]2Cc3cccc(C(=O)O)c3OB2O)CC1` [taniborbactam], for which the Ki values entry at MBLs is on record as “low nanomolar range”.

The values are drawn from article PMC10747250, “Structure-Based Optimization of 1,2,4-Triazole-3-Thione Derivatives: Improving Inhibition of NDM-/VIM-Type Metallo-β-Lactamases and Synergistic Activity on Resistant Bacteria” (Pharmaceuticals, 2023).
